In patent US20070077279A1, “Novel compositions containing polyphenols” (DSM IP Assets B.V., priority 2005, published 2007):

Legend:
Format in all cases: physicochemical
[1] = Storage test of lozenges under accelerated conditions (40° C./75% relative humidity) in closed polypropylene tubes; settings: lozenges of Example 1; for Initial Assay, vitamin/polyphenol in mg/tablet: 40° C./75% relative humidity study; for Vitamin/polyphenol in mg/tablet, 1 month 40° C. / Vitamin/polyphenol in mg/tablet, 2 months 40° C. / Vitamin/polyphenol in mg/tablet, 3 months 40° C.: 40° C./75% relative humidity
[2] = Storage test of chewable tablets under accelerated conditions (40° C./75% relative humidity) in closed polypropylene tubes; settings: chewable tablets of Example 2; for Initial Assay, vitamin/polyphenol in mg/tablet: 40° C./75% relative humidity study; for Vitamin/polyphenol in mg/tablet, 1 month 40° C. / Vitamin/polyphenol in mg/tablet, 2 months 40° C. / Vitamin/polyphenol in mg/tablet, 3 months 40° C.: 40° C./75% relative humidity
[3] = Storage test of chewable tablets at room temperature (25° C./60% relative humidity) in closed polypropylene tubes; settings: for Vitamin/polyphenol in mg/tablet, 1 month: chewable tablets of Example 2, 1 month; for Vitamin/polyphenol in mg/tablet, 2 months: chewable tablets of Example 2, 2 months; for Vitamin/polyphenol in mg/tablet, 3 months: chewable tablets of Example 2, 3 months; for Vitamin/polyphenol in mg/tablet, 6 months: chewable tablets of Example 2, 6 months; for Vitamin/polyphenol in mg/tablet, 12 months: chewable tablets of Example 2, 12 months
[4] = Storage test of lozenges at room temperature (25° C./60% relative humidity) in closed polypropylene tubes; settings: for Vitamin/polyphenol in mg/tablet, 1 month: lozenges of Example 1, 1 month; for Vitamin/polyphenol in mg/tablet, 2 months: lozenges of Example 1, 2 months; for Vitamin/polyphenol in mg/tablet, 3 months: lozenges of Example 1, 3 months; for Vitamin/polyphenol in mg/tablet, 6 months: lozenges of Example 1, 6 months; for Vitamin/polyphenol in mg/tablet, 12 months: lozenges of Example 1, 12 months; for Vitamin/polyphenol in mg/tablet, 18 months: lozenges of Example 1, 18 months; for Vitamin/polyphenol in mg/tablet, 24 months: lozenges of Example 1, 24 months
[5] = chewable tablets of Example 2, initial
[6] = chewable tablets of Example 2, initial (Table 4)
[7] = lozenges of Example 1, initial (Table 2)

In the case of `O=C(O[C@@H]1Cc2c(O)cc(O)cc2O[C@@H]1c1cc(O)c(O)c(O)c1)c1cc(O)c(O)c(O)c1` [EGCG, epigallocatechin gallate], the “Initial Assay, vitamin/polyphenol in mg/tablet” value [1] is reported as 11.9 mg, the “Vitamin/polyphenol in mg/tablet, 1 month 40° C.” value [1] is reported as 11.8 mg and the “Vitamin/polyphenol in mg/tablet, 2 months 40° C.” value [1] is reported as 11.4 mg. For the same molecule, the “Vitamin/polyphenol in mg/tablet, 3 months 40° C.” value [1] was 10.6 mg, the “Initial Assay, vitamin/polyphenol in mg/tablet” value [2] was 23.8 mg and the “Vitamin/polyphenol in mg/tablet, 1 month 40° C.” value [2] was 24.8 mg. For the same molecule, the “Vitamin/polyphenol in mg/tablet, 2 months 40° C.” value [2] was 23.2 mg, the “Vitamin/polyphenol in mg/tablet, 3 months 40° C.” value [2] was 23.2 mg and the “Vitamin/polyphenol in mg/tablet, 1 month” value [3] was 23.0 mg. For the same molecule, the “Vitamin/polyphenol in mg/tablet, 2 months” value [3] was 23.8 mg, the “Vitamin/polyphenol in mg/tablet, 3 months” value [3] was 24.1 mg and the “Vitamin/polyphenol in mg/tablet, 6 months” value [3] was 23.7 mg. The “Vitamin/polyphenol in mg/tablet, 12 months” value [3] was 22.6 mg, the “Initial Assay, vitamin/polyphenol in mg/tablet” value [3, 5] was 23.8 mg and the “Initial Assay, vitamin/polyphenol in mg/tablet” value [3, 6] was 23.8 mg. For the same molecule, the “Vitamin/polyphenol in mg/tablet, 1 month” value [4] was 11.8 mg, the “Vitamin/polyphenol in mg/tablet, 2 months” value [4] was 10.9 mg and the “Vitamin/polyphenol in mg/tablet, 3 months” value [4] was 11.0 mg. The “Vitamin/polyphenol in mg/tablet, 6 months” value [4] was 10.6 mg, the “Vitamin/polyphenol in mg/tablet, 12 months” value [4] was 11.6 mg and the “Vitamin/polyphenol in mg/tablet, 18 months” value [4] was 12.0 mg. For the same molecule, the “Vitamin/polyphenol in mg/tablet, 24 months” value [4] was 11.3 mg, the “Initial Assay, vitamin/polyphenol in mg/tablet” value ([4]; lozenges of Example 1, initial) was 11.9 mg and the “Initial Assay, vitamin/polyphenol in mg/tablet” value [4, 7] was 11.9 mg.
For `O=C1O[C@H]([C@@H](O)CO)C(O)=C1O` [Vit C, Ascorbic Acid], the “Initial Assay, vitamin/polyphenol in mg/tablet” value [1] was 12.2 mg, the “Vitamin/polyphenol in mg/tablet, 1 month 40° C.” value [1] was 11.2 mg and the “Vitamin/polyphenol in mg/tablet, 2 months 40° C.” value [1] was 11.1 mg. For the same molecule, the “Vitamin/polyphenol in mg/tablet, 3 months 40° C.” value [1] was 11.2 mg, the “Initial Assay, vitamin/polyphenol in mg/tablet” value [2] was 33.7 mg and the “Vitamin/polyphenol in mg/tablet, 1 month 40° C.” value [2] was 31.8 mg. The “Vitamin/polyphenol in mg/tablet, 2 months 40° C.” value [2] was 32.4 mg, the “Vitamin/polyphenol in mg/tablet, 3 months 40° C.” value [2] was 33.6 mg and the “Vitamin/polyphenol in mg/tablet, 1 month” value [3] was 32.3 mg. The “Vitamin/polyphenol in mg/tablet, 2 months” value [3] was 33.3 mg, the “Vitamin/polyphenol in mg/tablet, 3 months” value [3] was 36.1 mg and the “Vitamin/polyphenol in mg/tablet, 6 months” value [3] was 32.5 mg. For the same molecule, the “Vitamin/polyphenol in mg/tablet, 12 months” value [3] was 33.0 mg, the “Initial Assay, vitamin/polyphenol in mg/tablet” value [3, 5] was 33.7 mg and the “Initial Assay, vitamin/polyphenol in mg/tablet” value [3, 6] was 33.7 mg. The “Vitamin/polyphenol in mg/tablet, 1 month” value [4] was 11.4 mg, the “Vitamin/polyphenol in mg/tablet, 2 months” value [4] was 12.2 mg and the “Vitamin/polyphenol in mg/tablet, 3 months” value [4] was 11.3 mg. The “Vitamin/polyphenol in mg/tablet, 6 months” value [4] was 12.3 mg, the “Vitamin/polyphenol in mg/tablet, 12 months” value [4] was 12.1 mg and the “Vitamin/polyphenol in mg/tablet, 18 months” value [4] was 12.0 mg. For the same molecule, the “Vitamin/polyphenol in mg/tablet, 24 months” value [4] was 11.9 mg, the “Initial Assay, vitamin/polyphenol in mg/tablet” value ([4]; lozenges of Example 1, initial) was 12.2 mg and the “Initial Assay, vitamin/polyphenol in mg/tablet” value [4, 7] was 12.2 mg.
In the case of `CC(=O)Oc1c(C)c(C)c2c(c1C)CCC(C)(CCC[C@H](C)CCC[C@H](C)CCCC(C)C)O2` (stereo partly drawn) [Vit E, Tocopherol Acetate], the “Initial Assay, vitamin/polyphenol in mg/tablet” value [1] is reported as 1.6 mg, the “Vitamin/polyphenol in mg/tablet, 1 month 40° C.” value [1] is reported as 1.6 mg and the “Vitamin/polyphenol in mg/tablet, 2 months 40° C.” value [1] is reported as 1.6 mg. The “Vitamin/polyphenol in mg/tablet, 3 months 40° C.” value [1] was 1.8 mg, the “Initial Assay, vitamin/polyphenol in mg/tablet” value [2] was 8.3 mg and the “Vitamin/polyphenol in mg/tablet, 1 month 40° C.” value [2] was 8.7 mg. For the same molecule, the “Vitamin/polyphenol in mg/tablet, 2 months 40° C.” value [2] was 8.5 mg, the “Vitamin/polyphenol in mg/tablet, 3 months 40° C.” value [2] was 8.5 mg and the “Vitamin/polyphenol in mg/tablet, 1 month” value [3] was 8.4 mg. For the same molecule, the “Vitamin/polyphenol in mg/tablet, 2 months” value [3] was 8.5 mg, the “Vitamin/polyphenol in mg/tablet, 3 months” value [3] was 8.6 mg and the “Vitamin/polyphenol in mg/tablet, 6 months” value [3] was 8.3 mg. The “Vitamin/polyphenol in mg/tablet, 12 months” value [3] was 8.6 mg, the “Initial Assay, vitamin/polyphenol in mg/tablet” value [3, 5] was 8.3 mg and the “Initial Assay, vitamin/polyphenol in mg/tablet” value [3, 6] was 8.3 mg. The “Vitamin/polyphenol in mg/tablet, 1 month” value [4] was 1.7 mg, the “Vitamin/polyphenol in mg/tablet, 2 months” value [4] was 1.7 mg and the “Vitamin/polyphenol in mg/tablet, 3 months” value [4] was 1.8 mg. For the same molecule, the “Vitamin/polyphenol in mg/tablet, 6 months” value [4] was 1.6 mg, the “Vitamin/polyphenol in mg/tablet, 12 months” value [4] was 1.5 mg and the “Vitamin/polyphenol in mg/tablet, 18 months” value [4] was 1.6 mg. The “Vitamin/polyphenol in mg/tablet, 24 months” value [4] was 1.7 mg, the “Initial Assay, vitamin/polyphenol in mg/tablet” value ([4]; lozenges of Example 1, initial) was 1.6 mg and the “Initial Assay, vitamin/polyphenol in mg/tablet” value [4, 7] was 1.6 mg.
